Measurements: patent US5445832A, “Process for the preparation of microspheres made of a biodegradable polymeric material” (priority 1991, dated 1995)

Experiment: Solubility of the peptide pamoate in water
Format: physicochemical
Details: in H2O at 40° C.
Method: (pyro)Glu-His-Trp-Ser-Tyr-D-Trp-Leu-Arg-Pro-Gly-NH2 were converted into the corresponding pamoate, using conventional techniques. After comminution, this salt appears as formed of microparticles of an amorphous structure with an average particle size of approximately 10 microns. Solubility: lesser than 0.025 mg/ml in H2 O at 40° C.

CC(C)C[C@H](NC(=O)[C@@H](Cc1c[nH]c2ccccc12)NC(=O)[C@H](Cc1ccc(O)cc1)NC(=O)[C@H](CO)NC(=O)[C@H](Cc1c[nH]c2ccccc12)NC(=O)[C@H](Cc1c[nH]cn1)NC(=O)[C@@H]1CCC(=O)N1)C(=O)N[C@@H](CCCNC(=N)N)C(=O)N1CCC[C@H]1C(=O)NCC(N)=O [pamoate of D-Trp6-LHRH, (pyro)Glu-His-Trp-Ser-Tyr-D-Trp-Leu-Arg-Pro-Gly-NH2]
solubility: < 0.025 mg/mL
